Patent publication US10183027B2, “Lanthanide toolbox for multi-modal, non-invasive tumor specific theranostic prodrugs” (priority 2016, dated 2019)
Where two headings read alike, the source gives them in different places.

What was measured:
Plasmid DNA [1] = experiment: Agarose gel electrophoresis of plasmid DNA after UVA irradiation (PtEuL); assay type: biochemical; details: 20 μM, UVA light dose 50 J m^−2
From the text: The DNA gel images were obtained using GelRed Nucleic Acid Stain (BIOTIUM).
(§1) Direct binding of PtEuL with DNA in dark were studied by circular dichroism (CD). […] The interaction of photo-activated PtEuL with DNA was examined by agarose gel electrophoresis (FIG. 29B). After UVA irradiation with PtEuL, conversion of the supercoiled conformer of the plasmid DNA to its open-circular conformer, which indicates DNA nicking (single strand break) and linear conformer, which indicates double strand break, is clearly seen.

A549 = experiment: Dark cytotoxicity of Eu(III) complexes on A549 cells; assay type: cell-based
HeLa = experiment: Dark cytotoxicity of Eu(III) complexes on HeLa cells; assay type: cell-based
Plasmid DNA [2] = experiment: Agarose gel electrophoresis of plasmid DNA with RuEuL / EuL; assay type: biochemical; details: 20 μM
Description: Furthermore, the interaction of photo-activated RuEuL with DNA was examined by agarose gel electrophoresis (FIG. 24). Plasmid DNA (22.5 μg/mL in Tris/EDTA (TE) buffer) was incubated with the compounds (20 μM), irradiated by 488 nm light (dose 50 J m^−2) or not (control) and then subjected to 1% agarose gel electrophoresis. The separated DNA was stained with GelRed Nucleic Acid Stain (BIOTIUM) and imaged using Tanon 1600 Gel Imaging System (Tanon Science & Technology Co., Ltd).

HeLa cells [3] = experiment: Two-photon confocal microscopy of HeLa cells with PtEuL / EuL; assay type: cell-based
Description: Near infrared (NIR) excitation has increasingly been used in live cell imaging and photodynamic or photoactivated chemo-therapy because NIR photon (λ=650-900 nm) can penetrate deeper into tissues with pinpoint accuracy and little collateral photodamage. The two-photon photophysical properties of some antenna ligands of lanthanide complexes have been studied previously. The two-photon induced cytotoxicity of the EuL and PtEuL complexes towards HeLa cells after incubation at different dose concentrations (PtEuL: 0, 1, 2, 5, 10 μM; EuL: 0, 10, 20, 50, 100 μM) for 24 hours was studied using two-photon (λex=730 nm) confocal microscopy (FIGS. 30A-30C and FIGS. 33A and 33B). […] This is probably due to the lower cellular uptake rate of EuL because we no Eu emission was observed from the HeLa cells even after incubation in 100 μM of EuL, ceteris paribus.

HeLa cells [4] = experiment: Dark and photo cytotoxicity of RuEuL against HeLa cells; assay type: cell-based, human; details: for IC50: HeLa
Description: To determine the potential of RuEuL as a photo-controlled prodrug cell cytotoxicity studies were performed on human cervical cancer (HeLa) cells, and EuL as control (FIGS. 25A and 25B). Cells were incubated 6 hours in the dark before irradiation (488 nm, 1 J); dark controls were run in parallel.

Plasmid DNA [5] = experiment: Circular dichroism of plasmid DNA with PtEuL in dark; assay type: binding; details: 50 μM, 37° C., 12 h
From the text: as §1

[6] = Photo-induced dissociation of the cisplatin unit in tris buffer monitored by emission; assay type: physicochemical
Description: One of the key issues is the photodissociation level of the Pt moiety from the compounds described herein. The triplet states of the chromophores before and after photo-release the drug or upon binding with αvβ3 isoform were measured. Based on the synthetic protocols described herein, La (lanthanum) and Gd (gadolinium) analogs can be synthesized to measure the triplet states of the chromophores as well. The measurements of the triplet states of these chromophores phosphorescence and their phosphorescence lifetime was undertaken at low temperature (77K). The photodissociation kinetics of PtEuL were investigated by monitoring the emission spectrum with different irradiation times of UVA/NIR (light dosage=4 J cm^−2). The plot of responsive and initial emission intensity at 615 nm (^5D0→^7F2) vs time will be fitted in the exponential growth and decay equation to obtain the pseudo-first order rate constant.
The linear light induced dissociation of PtGdL in tris buffer (20 mM Tris base, 50 mM NaCl, pH 7.4) was monitored by determination of the emission intensity of solution of PtGdL in tris buffer with different light dosage of 365 nm UV light. In general, 3 mL of the solution of PtGdL (3 μM in tris buffer) in a 3.5 mL quartz cuvette was irradiated with a 365 nm UV lamp (5 mW) with stirring. The emission spectra of the solution were recorded at different time points (0, 1, 3, 5, 7, 10, 15, 20, 30, 45, 60, 75 and 90 min).
(Ln=Eu or Gd). The solution-state electronic adsorption and emission spectra of all the complexes and the ligand were recorded at 298 K (FIGS. 28A-28D). The EuL complex is the product of PtEuL after photo-dissociation and was used to monitor the photo-dissociation of [Pt—(NH3)2Cl]^+ from PtEuL. […] The photo-dissociation of PtEuL (3 μM in Tris-buffer, pH=7.4, 50 mM NaCl) was monitored by the variation of the Eu emission (λem=615 nm, ^5D0→^7F2) with the irradiation time. […] The pseudo-first order rate constant k was determined to be 0.53 min^−1 under these experimental conditions (FIG. 28D).

HeLa cells [7] = experiment: Confocal microscopy of light-induced cytotoxicity of RuEuL; assay type: cell-based, human; details: 50 μM RuEuL or 10 μM PtEuL, 6 hours, 7 mW
From the text: The light-induced cytotoxicity of RuEuL towards HeLa cells was also investigated by confocal microscopy (FIG. 26B) with the PtEuL complex tested under identical conditions for comparison. […] In cell culture studies, red Eu(III) emission from RuEuL was observed after 15-min irradiation. (FIG. 26A) The emission intensity increased with longer irradiation time because more excitation energy induced the dissociation of more Ru(II) moieties from the parent molecules, and the resulting EuL units generated stronger light emission. […] PtEuL is photo-activated upon ultraviolet A irradiation (λ=365 nm). However, UVA irradiation could cause severe adverse effects on human cells.

[8] = Photo-induced dissociation and dark stability of RuEuL in aqueous solution; assay type: physicochemical
Description: The photo-induced dissociation of RuEuL was simultaneously studied by emission (FIG. 21) spectroscopy, and by HPLC (FIG. 22) of the RuEuL solution (5 μM in H2O) after continuous irradiation with visible light (λirr.=488 nm, 1 W) during various times (1-8 min). After irradiation, turned-on europium emission is observed. This observation can be explained by the existence of dissociative states on Ru(II), which were proposed by Saddler et al. The photo-dissociation products, EuL and [Ru(OH)(bpy)2(H2O)]^+, have been further qualitatively identified by HPLC (FIG. 22). Before light irradiation, only one HPLC peak corresponding to RuEuL (retention time, R=11.3 min) is observed. After irradiation, this peak disappears, and two peaks of dissociated photoproducts appear.
In order to obtain the exact amount of the photo-released ruthenium(II) moiety for biomedical purpose and to evaluate drug release in real time, quantitative analysis is required. It can be achieved by LC/ESI-MS for simultaneous detection of the photo-products EuL and [Ru(OH)(bpy)2(H2O)]^+. Moreover, the switchable europium(III) emission can be considered as a real-time signaling technique for the released anticancer Ru(II) complexes and can also be exploited quantitatively. […]

[9] = mean ± SD of three independent experiments
[10] = 6 hours in the dark then irradiation (488 nm, 1 J), read-out: light IC50

Row | Structure (SMILES) | DNA photocleavage activity (Plasmid DNA [1]) | toxicity towards A549 (A549; identical conditions) | toxicity towards HeLa (HeLa; identical conditions) | interaction with DNA (Plasmid DNA [2]) | red emission from treated cells (HeLa cells [3]; identical conditions, up to 100 μM) | toxicity towards HeLa cells (HeLa cells [4]; control) | IC50 (A549; [9]) [µM] | IC50 (HeLa; [9]) [µM] | direct binding with DNA in dark (CD) (Plasmid DNA [5]) | concentration at which red emission was observed in the cell (HeLa cells [3]; 24 hours incubation, 30 min intermittent two-photon excitation 730 nm) [µM] | pseudo-first order rate constant k (I/I0 @ 615 nm vs. time) ([6]; 3 μM in Tris-buffer pH 7.4, 50 mM NaCl, UVA 365 nm) [min⁻¹] | pseudo-first order rate constant k for the dissociation of the cisplatin unit ([6]; tris buffer pH 7.4, UV 365 nm, 5 mW) [min⁻¹] | IC50 (HeLa cells [4]; [10]) [µM] | cell damage and red emission on 488 nm laser irradiation (HeLa cells [7]) | migration of DNA with light excitation (Plasmid DNA [2]; 488 nm light, dose 50 J m^−2) | migration of DNA without irradiation (Plasmid DNA [2]; control lanes) | pseudo-first order rate constant k of photo-dissociation ([8]; 5 μM in H2O, visible laser irradiation, 1 W) [min⁻¹] | stability in the dark ([8]; dark, 37° C., 24 hours) | IC50 (HeLa cells [4]; dark, read-out: dark IC50) [µM]
1 | O.O=C([O-])CN1CCN(CC(=O)[O-])CCN(Cc2cc(C#Cc3ccc(NC(=O)c4ccncc4)cc3)ccn2)CCN(CC(=O)[O-])CC1.[Eu+3] [EuL] | not at all | no toxicity | no toxicity | does not interact with DNA | no red emission was detected | almost no toxicity |  |  |  |  |  |  |  |  |  |  |  |  | 
2 | O.O=[N+]([O-])[O-].[Eu+3].[NH3+][Pt-2]([NH3+])([Cl])[n+]1ccc(C(=O)Nc2ccc(C#Cc3ccnc(CN4CCN(CC(=O)[O-])CCN(CC(=O)[O-])CCN(CC(=O)[O-])CC4)c3)cc2)cc1 [PtEuL] | strong DNA photocleavage activity |  |  |  |  |  | 49.5 ± 0.1 | 22.5 ± 0.5 | can directly bind to DNA and unwind its helix | > 2 | 0.53 | 0.053 | 22.9 | no red emission or cell death |  |  |  |  | 
3 | O.O=C([O-])CN1CCN(CC(=O)[O-])CCN(Cc2cc(C#Cc3ccc(NC(=O)c4cc[n+]([Ru-4]56([Cl])([n+]7ccccc7-c7cccc[n+]75)[n+]5ccccc5-c5cccc[n+]56)cc4)cc3)ccn2)CCN(CC(=O)[O-])CC1.[Cl-].[Eu+3] [RuEuL] |  |  |  |  |  |  |  |  |  |  |  |  | 32.5 | cell lysis was detected after 15-min irradiation | delayed | left the DNA intact and showed normal migration | 0.43 | stable | > 200
